Laboratory results from PubChem BioAssay (NCI).
“And” between values parts separate entries of the source, which are not always exact repeats. Equal values may be shown once.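 Values below derive from 48-hour exposures of cells grown in 96-well plates, with endpoints linearly interpolated between the two concentrations bracketing the appropriate inhibition level. GI50: concentration for 50% inhibition of growth. TGI: concentration producing complete growth inhibition.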 *1 amine or outer side, *2 acyl side, *3 side chain or, on linkers, in order; H or OH if unused. Where a SMILES comes first, the peptide text is derived from it. Bridges are numbered along the chain shown (N, C = ends). [ ]: non-standard residue; d: D form. ξ: configuration not given here. X4 = CCC(C)C(N[*:1])C(O)CC(=O)O[C@H](C(=O)C(C)C(=O)[*:2])C(C)C; NMeY = CN[C@@H](Cc1ccc(O)cc1)C(=O)O; ξNMeL = CNC(CC(C)C)C(=O)O; ξT = CC(O)C(N)C(=O)O

Experiments:
Experiment in all cases: DTP human tumour cell line panel, 48 h
[1] = test system: CCRF-CEM leukemia
[2] = test system: MOLT-4 leukemia
[3] = test system: OVCAR-5 ovarian
[4] = test system: RPMI-8226 leukemia
[5] = test system: A549 NSCLC
[6] = test system: HT29 colon
[7] = test system: MCF7 breast
[8] = test system: NCI-H522 lung
[9] = test system: NCI/ADR-RES ovarian
[10] = test system: SN12C renal

Row | Structure (SMILES) | GI50 [1] | GI50 [2] | TGI [2] | GI50 [3] | TGI [3] | GI50 [4] | TGI [4] | TGI [5] | TGI [1] | TGI [6] | TGI [7] | TGI [8] | TGI [9] | TGI [10] | GI50 [9] | GI50 [10]
1 | CC[N+](CC)=c1ccc2nc3c(cc(N)c4ccccc43)oc-2c1 | 0.183 µM | 0.122 µM | 0.334 µM | 0.24 µM | 0.495 µM | 0.0412 µM | 0.399 µM | – | – | – | – | – | – | – | – | –
2 | CN1C2CC(=O)CC1[C@@H]1OC(c3ccccc3)O[C@H]21 (some centres undefined) | – | – | > 100 µM | – | – | – | > 100 µM | > 100 µM | > 100 µM | > 100 µM | > 100 µM | > 100 µM | > 100 µM | > 100 µM | – | –
3 | N#CC1=CNc2sccc2S1(=O)=O | – | – | > 100 µM | – | > 100 µM | – | > 100 µM | > 100 µM | – | > 100 µM | > 100 µM | > 100 µM | > 100 µM | > 100 µM | – | –
4 | NC(=O)COc1ccccc1 | – | – | > 100 µM | – | > 100 µM | – | > 100 µM | > 100 µM | > 100 µM | > 100 µM | – | > 100 µM | – | > 100 µM | – | –
5 | O=C1NC(N/N=C\c2ccccc2)=N/C1=C/c1ccc(Cl)cc1 | – | – | 33.9 µM | – | 94.1 µM | – | 59.7 µM | 62.9 µM | – | > 100 µM | 57.4 µM | 44.4 µM | 56.6 µM | 54.6 µM | – | –
6 | COc1ccc(NC2Oc3cc4c(cc3C(c3cc(OC)c(O)c(OC)c3)C2C)OCO4)cc1 (centres undefined) | – | – | – | – | 73.7 µM | – | 12.9 µM | 23.5 µM | – | > 100 µM | > 100 µM | 27.3 µM | 98 µM | 11.7 µM | – | –
7 | OCCN=C1Nc2ccc(Cl)cc2C(=S)N2CSC[C@@H]12 | – | – | > 100 µM | – | > 100 µM | – | > 100 µM | > 100 µM | – | > 100 µM | > 100 µM | > 100 µM | > 100 µM | > 100 µM | – | –
8 | CCC(C)C1NC(=O)C(NC(=O)C(CC(C)C)N(C)C(=O)[C@@H]2CCCN2)C(C)OC(=O)[C@H](Cc2ccc(OC)cc2)N(C)C(=O)[C@@H]2CCCN2C(=O)[C@H](CC(C)C)NC(=O)C(C)C(=O)[C@H](C(C)C)OC(=O)CC1O (some centres undefined) (H-P[ξNMeL][ξT][X4]LP[NMeY](Me); ester 3-C) | – | – | 0.00507 µM | – | 0.0794 µM | – | – | 0.0246 µM and 0.0289 µM | 0.0557 µM | 0.0151 µM and 0.0127 µM | – | 0.00653 µM | 0.78 µM and 3.74 µM | – | 0.233 µM | –
9 | O=C(N=Nc1ccccc1Br)NNc1ccccc1Br | – | – | > 100 µM | – | > 100 µM | – | > 100 µM | > 100 µM | > 100 µM | > 100 µM | – | > 100 µM | – | > 100 µM | – | –
10 | OC1OC(c2ccco2)C(F)(F)C(F)(F)C1(F)F (centres undefined) | – | – | – | – | > 100 µM | – | > 100 µM | > 100 µM | > 100 µM | > 100 µM | > 100 µM | – | > 100 µM | > 100 µM | – | –
11 | CSc1nncc(-c2cc3c(c(SC)n2)CCC3)n1 | – | – | – | – | > 100 µM | – | > 100 µM | > 100 µM | > 100 µM | > 100 µM | – | > 100 µM | > 100 µM | > 100 µM | – | –
12 | Nc1nc2c(ncn2C2C=CC(CO)O2)c(=O)[nH]1 (centres undefined) | – | – | > 100 µM | – | > 100 µM | – | > 100 µM | – | > 100 µM | > 100 µM | > 100 µM | – | > 100 µM | > 100 µM | – | –
13 | NC(N)=N/N=C/c1nc2sccn2c1[N+](=O)[O-] | – | – | – | – | > 100 µM | – | > 100 µM | > 100 µM | – | 67.7 µM | 36.4 µM | 89.9 µM | > 100 µM | > 100 µM | – | –
14 | CC1(C)C2CC(c3ccncc3)ON2C(C)(C)N1O (centres undefined) | – | – | > 100 µM | – | > 100 µM | – | > 100 µM | > 100 µM | > 100 µM | > 100 µM | > 100 µM | – | > 100 µM | > 100 µM | – | –
15 | CSC(=NC1=NC(C(F)(F)F)(C(F)(F)F)N=C(c2ccccc2)O1)SC | – | – | 85.3 µM | – | 82.3 µM | – | – | > 100 µM | > 100 µM | 61 µM | 60.5 µM | 25 µM | 90.9 µM | 42.9 µM | – | –
16 | O=[As](O)(O)c1cc(N=Nc2ccc(-c3ccc(N=Nc4cc([As](=O)(O)O)c(O)cc4O)cc3)cc2)c(O)cc1O | – | – | > 100 µM | – | 97.6 µM | – | > 100 µM | > 100 µM | > 80 µM | > 100 µM | – | > 100 µM | – | > 100 µM | – | –
17 | CC1=CC[C@@H]2CC[C@]3(C)[C@H](CC[C@@H]4[C@@]5(C)CCCNC(C)(C)[C@@H]5CC[C@]43C)[C@H]2[C@@H]1C | – | – | – | 1.67 µM | 3.07 µM | – | – | – | – | – | – | – | 3.52 µM | 3.44 µM | 1.84 µM | 1.83 µM
